Results reported in article PMC7159882, “Polyunsaturated fatty acid analogues differentially affect cardiac NaV, CaV, and KV channels through unique mechanisms” (eLife, 2020).
Where “and” joins values, the source holds several entries; their conditions need not be identical. Equal entries are not always repeated.

Experiments:
Nav1.5/β1 = target: T1, Nav1.5/β1 (Homo sapiens, UniProt Q14524); experiment: Two-electrode voltage clamp of Nav1.5/β1 expressed in Xenopus oocytes; format: cell-based; conditions: for INa I/I0: relative current at 0 mV
T1 construct: Nav1.5 (UniProt: Q14524.1); expressed in transfected cells; host or cells: Xenopus laevis oocytes (cRNA injection, Nav1.5:β1 2:1 by weight)
Description: (§1) Molecular Biology cRNA encoding Kv7.1 (UniProt: P51787), KCNE1 (UniProt: P15382.1), Nav1.5 (UniProt: Q14524.1), Nav β1 (UniProt: […]), Nav β3 (UniProt: […]), Cav1.2 (GenBank: CAA84346), Cav β3 (Uniprot: P54286), Cav β2 (Uniprot: P54288), and Cav α2δ (Uniprot: P13806) were transcribed using the mMessage mMachine T7 kit (Ambion). 50 ng of cRNA was injected into defolliculated Xenopus laevis oocytes (Ecocyte, Austin, TX): For Kv7.1/KCNE1 channel expression, we injected a 3:1, weight:weight (Kv7.1:KCNE1) cRNA ratio. For Nav1.5 channel expression, we injected a 2:1, weight:weight (Nav1.5:β1) cRNA ratio. For Cav1.2 channel expression, we injected a 2:1:1, weight:weight (Cav1.2:β3:α2δ) cRNA ratio. The exact stoichiometry for channel macromolecular complexes, including α -subunits and auxiliary subunits is not clear for many ion channels. For example, there have been multiple reported stoichiometries for Kv7.1:KCNE1 determined in heterologous expression systems with some groups reporting flexible stoichiometry of 4 Kv7.1: 1–4 KCNE1 and others reporting a fixed stoichiometry of 4 Kv7.1: 2 KCNE1 ([Murray et al., 2016]; [Nakajo et al., 2010]). The ratios of cRNA of α- and auxiliary subunits that we injected in Xenopus laevis oocytes are such that all α-subunits are assumed to be in complex with auxiliary subunits. This allows a more homogenous population of ion channels with auxiliary subunits. One caveat to expressing ion channels as macromolecular complexes is that there are many other auxiliary subunits that could associate with the channel α -subunit that are present in cardiomyocytes and have the potential to alter PUFA-induced effects, but that are not being co-expressed in our experiments. In this work, we are co-expressing some of the auxiliary subunits that have been primarily reported to associate with their respective α -subunits in cardiomyocytes. Following cRNA injection, cells were incubated for 72–96 hr in standard ND96 solution (96 mM NaCl, 2 mM KCl, 1 mM MgCl2, 1.8 mM CaCl2, 5 mM HEPES; pH = 7.5) containing 1 mM pyruvate at 16°C prior to electrophysiological recordings.
(§2) Xenopus laevis oocytes were recorded in the two-electrode voltage clamp (TEVC) configuration. Recording pipettes were filled with 3 M KCl. The recording chamber was filled with ND96 (96 mM NaCl, 2 mM KCl, 1 mM MgCl2, 1.8 mM CaCl2, 5 mM HEPES; pH 7.5). For Cav1.2/β3/α2δ channel recordings, Xenopus oocytes were injected with 50 nl of 100 mM EGTA and incubated at 10°C for 30 min prior to electrophysiological recordings in order to sequester cytosolic calcium. In addition, Cav1.2/β3/α2δ channel recordings were done in Ca^2+-free solutions, using Ba^2+ as the charge carrier, to prevent calcium-dependent inactivation of Cav1.2/β3/α2δ channels. Calcium-dependent inactivation was not studied in this work, due to the presence of large calcium-activated chloride currents present in Xenopus laevis oocytes. PUFAs were obtained from Cayman Chemical (Ann Arbor, MI.) or synthesized in house (Linköping, Sweden) through methods previously described ([Bohannon et al., 2020]) and kept at −20 °C as 100 mM stock solutions in ethanol. Serial dilutions of the different PUFAs were prepared from stocks to make 0.2 μM, 0.7 μM, 2 μM, 7 μM, and 20 μM concentrations in ND96 solutions (pH = 7.5). PUFAs were perfused into the recording chamber using the Rainin Dynamax Peristaltic Pump (Model RP-1) (Rainin Instrument Co., Oakland, CA. USA).
(§3) Electrophysiological recordings were obtained using Clampex 10.3 software (Axon, pClamp, Molecular Devices). To measure Kv7.1/KCNE1 currents we apply PUFAs as the membrane potential is stepped every 30 s from −80 mV to 0 mV for 5 s before stepping to −40 mV and back to −80 mV to ensure that the PUFA effects on the current at 0 mV reached steady state. A voltage-step protocol was used to measure the current vs. voltage (I-V) relationship before PUFA application and after the PUFA effects had reached steady state for each concentration of PUFA. […]

Herg channels = tested on: Herg channels; parameters: method as in B.H. Bentzen and H. Duff, unpublished data; conditions: up to 10 μM; heterologous systems; ref B.H. Bentzen and H. Duff, unpublished data; cited from earlier work
Cav1.2/β3/α2δ = target: T2, Cav1.2/β3/α2δ (Homo sapiens, UniProt Q13936); experiment: Two-electrode voltage clamp of Cav1.2/β3/α2δ expressed in Xenopus oocytes (Ba2+ as charge carrier); format: cell-based; conditions: for ICa I/I0: relative current at 0 mV
T2 construct: expressed in transfected cells; host or cells: Xenopus laevis oocytes (cRNA injection, Cav1.2:β3:α2δ 2:1:1 by weight)
T2 sequence (Q13936 1-2138 isoform Q13936-20): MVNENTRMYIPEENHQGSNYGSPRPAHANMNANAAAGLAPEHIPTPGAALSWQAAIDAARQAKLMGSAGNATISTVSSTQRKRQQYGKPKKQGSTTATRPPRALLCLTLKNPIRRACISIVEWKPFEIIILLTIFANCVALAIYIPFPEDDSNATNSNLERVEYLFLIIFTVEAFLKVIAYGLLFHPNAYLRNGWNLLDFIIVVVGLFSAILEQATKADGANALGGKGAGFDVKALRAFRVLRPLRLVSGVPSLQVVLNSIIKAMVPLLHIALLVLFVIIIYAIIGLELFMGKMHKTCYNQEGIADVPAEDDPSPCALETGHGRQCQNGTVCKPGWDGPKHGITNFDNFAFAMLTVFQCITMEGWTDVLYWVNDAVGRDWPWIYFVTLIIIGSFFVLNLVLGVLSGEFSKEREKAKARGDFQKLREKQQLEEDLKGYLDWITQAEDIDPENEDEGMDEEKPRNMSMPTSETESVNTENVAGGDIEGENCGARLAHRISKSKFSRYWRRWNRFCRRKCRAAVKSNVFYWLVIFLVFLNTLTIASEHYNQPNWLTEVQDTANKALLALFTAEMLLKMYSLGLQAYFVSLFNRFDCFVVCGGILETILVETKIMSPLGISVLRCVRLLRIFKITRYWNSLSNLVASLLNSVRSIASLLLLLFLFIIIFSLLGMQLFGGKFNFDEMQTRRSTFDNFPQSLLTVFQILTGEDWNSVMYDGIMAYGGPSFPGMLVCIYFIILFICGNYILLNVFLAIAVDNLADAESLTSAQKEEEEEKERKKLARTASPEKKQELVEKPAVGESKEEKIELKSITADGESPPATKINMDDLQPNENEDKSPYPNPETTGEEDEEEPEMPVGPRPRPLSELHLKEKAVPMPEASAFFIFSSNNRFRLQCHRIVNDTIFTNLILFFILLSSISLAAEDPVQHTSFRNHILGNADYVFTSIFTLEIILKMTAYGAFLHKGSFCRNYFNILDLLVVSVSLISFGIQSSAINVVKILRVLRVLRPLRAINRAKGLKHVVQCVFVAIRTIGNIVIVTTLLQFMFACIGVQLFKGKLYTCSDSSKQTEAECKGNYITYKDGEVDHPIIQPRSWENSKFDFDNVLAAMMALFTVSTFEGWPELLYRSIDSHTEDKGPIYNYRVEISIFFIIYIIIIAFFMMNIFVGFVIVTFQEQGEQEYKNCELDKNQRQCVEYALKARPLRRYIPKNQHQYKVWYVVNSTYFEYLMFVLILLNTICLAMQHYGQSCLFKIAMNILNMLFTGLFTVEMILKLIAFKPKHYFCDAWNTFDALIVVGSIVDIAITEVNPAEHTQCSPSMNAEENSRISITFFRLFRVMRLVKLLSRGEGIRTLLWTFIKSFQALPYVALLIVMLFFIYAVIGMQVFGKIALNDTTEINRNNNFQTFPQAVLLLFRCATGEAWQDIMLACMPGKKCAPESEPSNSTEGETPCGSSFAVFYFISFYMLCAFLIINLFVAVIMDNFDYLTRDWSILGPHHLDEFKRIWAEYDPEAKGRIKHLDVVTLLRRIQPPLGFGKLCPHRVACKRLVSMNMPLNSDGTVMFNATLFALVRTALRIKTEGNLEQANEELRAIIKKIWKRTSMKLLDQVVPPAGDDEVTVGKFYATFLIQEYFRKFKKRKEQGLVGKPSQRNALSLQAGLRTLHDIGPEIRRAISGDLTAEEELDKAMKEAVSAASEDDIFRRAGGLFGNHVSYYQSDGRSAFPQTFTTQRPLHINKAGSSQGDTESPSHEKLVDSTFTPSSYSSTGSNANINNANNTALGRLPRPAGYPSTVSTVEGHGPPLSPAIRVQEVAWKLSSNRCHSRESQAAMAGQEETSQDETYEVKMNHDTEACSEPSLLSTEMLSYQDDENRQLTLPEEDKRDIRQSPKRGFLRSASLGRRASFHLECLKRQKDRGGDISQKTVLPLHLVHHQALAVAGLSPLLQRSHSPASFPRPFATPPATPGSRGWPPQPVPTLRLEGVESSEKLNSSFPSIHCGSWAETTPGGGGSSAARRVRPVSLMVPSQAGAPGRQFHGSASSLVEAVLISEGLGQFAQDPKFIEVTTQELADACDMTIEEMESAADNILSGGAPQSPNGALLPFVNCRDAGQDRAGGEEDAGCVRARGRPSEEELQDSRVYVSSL
T2 sequence (P54286 whole entry partner): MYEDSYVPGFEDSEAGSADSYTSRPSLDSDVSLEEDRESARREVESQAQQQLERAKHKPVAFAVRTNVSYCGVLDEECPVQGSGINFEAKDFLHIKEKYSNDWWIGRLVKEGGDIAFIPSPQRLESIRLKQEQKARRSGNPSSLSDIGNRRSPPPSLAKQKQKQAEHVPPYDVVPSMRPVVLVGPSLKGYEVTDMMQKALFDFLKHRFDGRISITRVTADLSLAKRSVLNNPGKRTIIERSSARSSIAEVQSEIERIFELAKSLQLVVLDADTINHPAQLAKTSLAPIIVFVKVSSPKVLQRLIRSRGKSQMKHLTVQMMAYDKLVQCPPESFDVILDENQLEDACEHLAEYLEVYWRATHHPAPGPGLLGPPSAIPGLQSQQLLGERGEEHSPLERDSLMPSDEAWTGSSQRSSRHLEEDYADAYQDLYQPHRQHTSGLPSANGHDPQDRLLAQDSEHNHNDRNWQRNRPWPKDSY
T2 sequence (P13806 27-960 partner): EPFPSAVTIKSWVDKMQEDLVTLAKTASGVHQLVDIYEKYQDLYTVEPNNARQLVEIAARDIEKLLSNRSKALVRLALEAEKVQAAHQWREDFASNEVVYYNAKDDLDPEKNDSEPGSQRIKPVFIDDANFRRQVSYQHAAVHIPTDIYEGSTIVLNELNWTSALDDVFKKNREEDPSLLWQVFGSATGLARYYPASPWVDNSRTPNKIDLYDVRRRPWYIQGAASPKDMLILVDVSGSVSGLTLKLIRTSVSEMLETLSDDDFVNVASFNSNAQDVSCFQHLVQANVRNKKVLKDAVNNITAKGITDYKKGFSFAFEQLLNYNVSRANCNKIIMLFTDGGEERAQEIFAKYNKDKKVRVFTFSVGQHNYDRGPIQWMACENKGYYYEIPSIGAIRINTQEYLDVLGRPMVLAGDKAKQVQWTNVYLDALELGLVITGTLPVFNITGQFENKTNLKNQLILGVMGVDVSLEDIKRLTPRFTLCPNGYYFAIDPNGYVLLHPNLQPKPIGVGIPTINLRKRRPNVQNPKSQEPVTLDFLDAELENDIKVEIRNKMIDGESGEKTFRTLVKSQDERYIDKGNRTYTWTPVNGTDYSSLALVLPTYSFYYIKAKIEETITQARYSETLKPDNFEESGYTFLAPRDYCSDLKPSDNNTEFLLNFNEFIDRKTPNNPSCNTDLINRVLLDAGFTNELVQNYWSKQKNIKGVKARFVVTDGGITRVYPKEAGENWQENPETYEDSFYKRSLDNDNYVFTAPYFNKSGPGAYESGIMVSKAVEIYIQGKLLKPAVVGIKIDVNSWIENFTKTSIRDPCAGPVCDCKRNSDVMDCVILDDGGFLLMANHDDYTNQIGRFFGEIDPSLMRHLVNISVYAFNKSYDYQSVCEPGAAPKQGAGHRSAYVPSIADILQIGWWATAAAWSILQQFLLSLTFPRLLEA
T2 sequence (P13806 961-1106 partner): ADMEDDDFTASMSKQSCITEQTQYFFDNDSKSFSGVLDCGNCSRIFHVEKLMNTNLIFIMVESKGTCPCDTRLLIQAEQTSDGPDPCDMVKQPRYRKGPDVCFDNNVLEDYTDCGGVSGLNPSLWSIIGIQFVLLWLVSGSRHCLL
Description: as §1, §2, §3

SMILES	Gmax/Gmax0 (Nav1.5/β1; 0.2 μM)	ΔV0.5 (voltage dependence of inactivation) (Nav1.5/β1; 0.2 μM) [mV]	INa I/I0 (Nav1.5/β1; 0.2 μM)	Gmax/Gmax0 (Nav1.5/β1; 0.7 μM)	ΔV0.5 (voltage dependence of inactivation) (Nav1.5/β1; 0.7 μM) [mV]	INa I/I0 (Nav1.5/β1; 0.7 μM)	Gmax/Gmax0 (Nav1.5/β1; 2 μM)	ΔV0.5 (voltage dependence of inactivation) (Nav1.5/β1; 2 μM) [mV]	INa I/I0 (Nav1.5/β1; 2 μM)	Gmax/Gmax0 (Nav1.5/β1; 7 μM)	ΔV0.5 (voltage dependence of inactivation) (Nav1.5/β1; 7 μM)	Gmax/Gmax0 (Nav1.5/β1; 20 μM)	ΔV0.5 (voltage dependence of inactivation) (Nav1.5/β1; 20 μM) [mV]	INa I/I0 (Nav1.5/β1; 20 μM)	Gmax/Gmax0 (Cav1.2/β3/α2δ; 0.2 μM)	ΔV0.5 (voltage dependence of inactivation) (Cav1.2/β3/α2δ; 0.2 μM) [mV]	ICa I/I0 (Cav1.2/β3/α2δ; 0.2 μM)	Gmax/Gmax0 (Cav1.2/β3/α2δ; 0.7 μM)	ΔV0.5 (voltage dependence of inactivation) (Cav1.2/β3/α2δ; 0.7 μM) [mV]	ICa I/I0 (Cav1.2/β3/α2δ; 0.7 μM)	also measured
CC/C=C\C/C=C\C/C=C\C/C=C\C/C=C\C/C=C\CCC(=O)NCC(=O)O [DHA-glycine, docosahexaenoyl glycine]	1.0 ± 0.02	0.3 ± 0.1	1.0 ± 0.02	1.0 ± 0.03	-0.2 ± 0.6	1.0 ± 0.04	1.0 ± 0.04	-0.3 ± 0.5	1.1 ± 0.05	1.0 ± 0.04	−2.4 ± 0.6 mV and -2.4 ± 0.7 mV	0.5 ± 0.1	-11.5 ± 1.7	0.7 ± 0.1	1.0 ± 0.1	6.1 ± 3.5	0.9 ± 0.1	1.1 ± 0.1	6.4 ± 4.3	1.0 ± 0.1	effects on currents through Herg channels (Herg channels): neither N-AT nor DHA-glycine up to 10 μM had any significant effects; Gmax/Gmax0 (Cav1.2/β3/α2δ; 2 μM): 1.1 ± 0.1; ΔV0.5 (voltage dependence of inactivation) (Cav1.2/β3/α2δ; 2 μM): 6.1 ± 4.2 mV; ICa I/I0 (Cav1.2/β3/α2δ; 2 μM): 0.9 ± 0.1; Gmax/Gmax0 (Cav1.2/β3/α2δ; 7 μM): 1.0 ± 0.1; ΔV0.5 (voltage dependence of inactivation) (Cav1.2/β3/α2δ; 7 μM): 7.6 ± 3.1 mV; Gmax/Gmax0 (Cav1.2/β3/α2δ; 20 μM): 1.0 ± 0.1; ΔV0.5 (voltage dependence of inactivation) (Cav1.2/β3/α2δ; 20 μM): 5.2 ± 4.4 mV; ICa I/I0 (Cav1.2/β3/α2δ; 20 μM): 0.9 ± 0.1
CCCCC/C=C\C/C=C\CC/C=C\CCCC(=O)NCC(=O)O [Pin-glycine]	1.0 ± 0.03	0.4 ± 0.3	1.1 ± 0.05	1.0 ± 0.03	0.4 ± 0.6	1.1 ± 0.1	0.9 ± 0.04	-0.3 ± 0.7	1.0 ± 0.1	0.7 ± 0.08	–4.7 ± 1.9 mV	0.3 ± 0.1	-17.8 ± 4.2	0.3 ± 0.1	0.9 ± 0.1	-3.2 ± 3.0	0.7 ± 0.1	0.9 ± 0.1	-3.3 ± 3.4	0.8 ± 0.1	Gmax/Gmax0 (Nav1.5/β1; 7 μM, listed as pin-glycine): 0.7 ± 0.1; ΔV0.5 (voltage dependence of inactivation) (Nav1.5/β1; 7 μM, listed as pin-glycine): -4.8 ± 1.9 mV; INa I/I0 (Nav1.5/β1; 7 μM): 0.7 ± 0.1 (p=0.09); INa I/I0 (Nav1.5/β1; 7 μM, listed as pin-glycine): 0.7 ± 0.1; Gmax/Gmax0 (Cav1.2/β3/α2δ; 2 μM): 0.9 ± 0.1; ΔV0.5 (voltage dependence of inactivation) (Cav1.2/β3/α2δ; 2 μM): -4.3 ± 4.1 mV; ICa I/I0 (Cav1.2/β3/α2δ; 2 μM): 0.8 ± 0.1; Gmax/Gmax0 (Cav1.2/β3/α2δ; 7 μM): 0.8 ± 0.1; ΔV0.5 (voltage dependence of inactivation) (Cav1.2/β3/α2δ; 7 μM): −3.1 ± 4.2 mV; Gmax/Gmax0 (Cav1.2/β3/α2δ; 7 μM, listed as pin-glycine): 0.8 ± 0.2; ΔV0.5 (voltage dependence of inactivation) (Cav1.2/β3/α2δ; 7 μM, listed as pin-glycine): -3.1 ± 4.2 mV; ICa I/I0 (Cav1.2/β3/α2δ; 7 μM): 0.8 ± 0.1 (p=0.26); ICa I/I0 (Cav1.2/β3/α2δ; 7 μM, listed as pin-glycine): 0.8 ± 0.1; Gmax/Gmax0 (Cav1.2/β3/α2δ; 20 μM): 0.7 ± 0.2; ΔV0.5 (voltage dependence of inactivation) (Cav1.2/β3/α2δ; 20 μM): -3.4 ± 5.6 mV; ICa I/I0 (Cav1.2/β3/α2δ; 20 μM): 0.6 ± 0.2
CCCCC/C=C\C/C=C\CC/C=C\CCCC(=O)NCCS(=O)(=O)O [Pin-taurine]	1.2 ± 0.2	1.6 ± 0.9	1.2 ± 0.1	1.2 ± 0.2	0.9 ± 1.1	1.2 ± 0.1	1.0 ± 0.1	-3.0 ± 1.9	1.0 ± 0.1	0.4 ± 0.09	–16 ± 2.7 mV	0.1 ± 0.02	-28.1 ± 2.4	0.2 ± 0.03	0.9 ± 0.1	2.7 ± 1.9	0.7 ± 0.1	1.0 ± 0.1	3.9 ± 1.9	0.8 ± 0.1	Gmax/Gmax0 (Nav1.5/β1; 7 μM, listed as pin-taurine): 0.4 ± 0.1; ΔV0.5 (voltage dependence of inactivation) (Nav1.5/β1; 7 μM, listed as pin-taurine): -16.0 ± 2.7 mV; INa I/I0 (Nav1.5/β1; 7 μM): 0.5 ± 0.1 (p=0.01); INa I/I0 (Nav1.5/β1; 7 μM, listed as pin-taurine): 0.5 ± 0.1; Gmax/Gmax0 (Cav1.2/β3/α2δ; 2 μM): 1.0 ± 0.1; ΔV0.5 (voltage dependence of inactivation) (Cav1.2/β3/α2δ; 2 μM): 3.7 ± 1.8 mV; ICa I/I0 (Cav1.2/β3/α2δ; 2 μM): 0.8 ± 0.1; Gmax/Gmax0 (Cav1.2/β3/α2δ; 7 μM): 0.8 ± 0.1; ΔV0.5 (voltage dependence of inactivation) (Cav1.2/β3/α2δ; 7 μM): 4.1 ± 2.2 mV; ICa I/I0 (Cav1.2/β3/α2δ; 7 μM): 0.7 ± 0.1 (p=0.02); ICa I/I0 (Cav1.2/β3/α2δ; 7 μM, listed as pin-taurine): 0.7 ± 0.1; Gmax/Gmax0 (Cav1.2/β3/α2δ; 20 μM): 0.6 ± 0.1; ΔV0.5 (voltage dependence of inactivation) (Cav1.2/β3/α2δ; 20 μM): 6.0 ± 4.1 mV; ICa I/I0 (Cav1.2/β3/α2δ; 20 μM): 0.5 ± 0.1
